Reference: patent US20250213516A1, “Prophylactic Methods For Treating ALS” (BioJiva LLC, priority 2022, published 2025)
“Also recorded” adds a separate entry of the source.

Tests used:
[1] = tested on: patients in the accelerated stage of ALS; assay: Clinical study, ALSFRS-R scoring of patients in the accelerated stage of ALS; format: in vivo, human; conditions: 9 g/day ethyl ester vs placebo, 24 weeks, FIG. 2
Description: As used herein, the term “accelerated stage of ALS” refers to patients whose diseases progression has evidenced a more substantial loss of muscular functionality. For the purposes of this application, such is identified as having a natural history score of 37 or less.
In this example, the same 41 patients diagnosed with ALS used in Comparative Example 1 were used. […] Each cohort received three 1 gram pills t.i.d. at breakfast, lunch and dinner for a total of 9 pills.
After 24 weeks, each patient in each cohort were retested using the ALSFRS-R scoring test. The scores were then averaged for each cohort and the results are found in FIG. 2.

[2] = tested on: patients in the incipient stage of ALS; assay: Clinical study, ALSFRS-R scoring of patients in the incipient stage of ALS; format: in vivo, human; conditions: for patients showing a better rate of decline (cut-off −11 change from baseline in ALSFRS-R): incipient stage, scored at 48 weeks
Description: This rating scale evaluated 12 different components on a 0 (worse) to 4 (best) scale where the components are speech, salivation, swallowing, handwriting, […], food handling, dressing and hygiene, turning in bed, […], climbing stairs, dyspnea, orthopnea, and respiratory insufficiency. As used herein, patients diagnosed with ALS are first evaluated to determine their natural history which measures the extent of loss of muscular functional due to the disease prior to initiation of therapy.
In this example, 41 patients diagnosed with ALS were tested to ascertain their natural history. Of these 41 patients, 23 scored above 38 points in the ALSFRS-R scoring test and were assigned as having incipient ALS. […] Each cohort received three 1 gram pills t.i.d. (“.three times a day”) at breakfast, lunch and dinner for a total of 9 pills.
After 24 weeks, each patient in each cohort were retested using the ALSFRS-R scoring test. The scores were then averaged for each cohort and the results are found in FIG. 1.
Each cohort received three 1 gram pills t.i.d. (“.three times a day”) at breakfast, lunch and dinner for a total of 9 pills.
After 48 weeks, each patient in each cohort were retested using the ALSFRS-R scoring test. The scores were then averaged.

[3] = tested on: inflammation model; assay: Inflammation model
[4] = average diet, about 14 grams linoleic acid per day; cited from earlier work

Structure (SMILES): [2H]C([2H])(/C=C\CCCCC)/C=C\CCCCCCCC(=O)OCC
- loss of muscular functionality (ALSFRS-R, cohort average) [1]: substantially less loss of muscular functionality
- change in ALSFRS-R scores (loss of functionality), cohort average ([2]; incipient stage ALS, about 9 g/day ethyl ester (8.64 g acid) vs placebo, 24 weeks, FIG. 1): do not evidence a significant change; also recorded: minimal loss of functionality

Structure (SMILES): [2H]C([2H])(/C=C\CCCCC)/C=C\C([2H])([2H])/C=C\C([2H])([2H])/C=C\CCCC(=O)O [7,7,10,10,13,13-D6-arachidonic acid]
- activity relative to 13,13-D2-arachidonic acid [3]: a little more than twice as active

Structure (SMILES): [2H]C([2H])(/C=C\CCCCC)/C=C\CCCCCCCC(=O)O [11,11-D2-linoleic acid]
- patients showing a better rate of decline (cut-off −11 change from baseline in ALSFRS-R) ([2]; placebo for 24 weeks, then 8.64 g/day for 24 weeks): 40%
- patients showing a better rate of decline (cut-off −11 change from baseline in ALSFRS-R) ([2]; treated with 8.64 g/day for 48 weeks): 70%

Structure (SMILES): CCCCC/C=C\C/C=C\CCCCCCCC(=O)O [linoleic acid]
- portion of linoleic acid consumed hepatically converted to arachidonic acid [4]: about 10%
